Patent publication US20260199323A1, “LIGAND COMPOUNDS FOR E3 UBIQUITIN LIGASE, PROTEIN DEGRADERS DEVELOPED ON BASIS OF LIGAND COMPOUNDS, AND USES THEREOF” (GLUETACS THERAPEUTICS (SHANGHAI) CO., LTD., priority 2021, published 2026)
Like-named read-outs stand apart in the source and are kept apart here.

Key:
MM.1R = test: CCK-8 tumor cell proliferation, MM.1R; assay type: cell-based; settings: Table 20, BCL-2 inhibitor based, read-out: IC50 inhibiting proliferation of tumor cells, MM.1R
How it was run: (§1)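 STR-authenticated, mycoplasma-negative cells were cultured at 37 °C with 5% CO2. One day after plating, they were treated with a 5-fold serial dilution of compound (10 points, highest 10 μM). CCK-8 was used to assess viability, giving IC50 values.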

MDA-MB-231 = test: CCK-8 tumor cell proliferation, MDA-MB-231; assay type: cell-based, Human; settings: Homo sapiens; Table 20, BCL-2 inhibitor based; MDA-MB-231; read-out: IC50 inhibiting proliferation of tumor cells, MDA-MB-231
How it was run: as §1

LNcap = test: CCK-8 tumor cell proliferation, LNcap; assay type: cell-based, Human
Description: (§2) The tumor cells used herein were cultured in a cell culture medium listed in table 4 at 37° C. in an incubator with 5% CO2. Prior to experimentation, all cells used were correctly identified by STR profiling, and tested negative for mycoplasma through routine screenings.
(§3) IC50 values of the compounds of the present disclosure (including the compounds in Tables 1 and 3, and compounds of examples) were measured using the Meilun Cell Counting Kit-8 kit from Dalian Meilun Biotech Co., Ltd. Assay details are as follows: tumor cells were seeded in a 96-well plate at a density listed in Table 5. After 24 h, 100 μL of the inoculated cells were treated with 0.5 μL of the compounds of the present disclosure (including the compounds in Tables 1 and 3, and compounds of examples) at 10 different successively decreasing concentrations (starting at the highest concentration of 10 μM; 5-fold serial dilutions). After the cells were treated with the compounds of the present disclosure for a period of time, the cell viability detection reagent was added to the culture medium for cell viability assessment according to the instructions provided with the CCK-8 kit. […] The growth inhibition of the compounds of the present disclosure on cells was plotted by Prism Graphpad software, and the IC50 values of the compounds of the present disclosure were calculated therefrom.

SR = test: CCK-8 tumor cell proliferation, SR; assay type: cell-based, Human; settings: Homo sapiens; Table 20, BCL-2 inhibitor based; SR; read-out: IC50 inhibiting proliferation of tumor cells, SR
How it was run: as §1

MM.1S = test: CCK-8 tumor cell proliferation, MM.1S; assay type: cell-based; settings: Homo sapiens, MM1.S; Table 20, BCL-2 inhibitor based; MM.1S; read-out: IC50 inhibiting proliferation of tumor cells, MM.1S
How it was run: as §1

HCC827 = test: CCK-8 tumor cell proliferation, HCC827; assay type: cell-based, Human; settings: Homo sapiens; Table 20, BCL-2 inhibitor based; HCC827; read-out: IC50 inhibiting proliferation of tumor cells, HCC827
Description: The tumor cells used herein were cultured in a cell culture medium listed in table 4 at 37° C. in an incubator with 5% CO2.
as §3, with “After” for “IC50 values of the compounds of the present disclosure (including the compounds in Tables 1 and 3, and compounds of examples) were measured using the Meilun Cell Counting Kit-8 kit from Dalian Meilun Biotech Co., Ltd. Assay details are as follows: tumor cells were seeded in a 96-well plate at a density listed in Table 5. After”

CCRF-CEM = test: CCK-8 tumor cell proliferation, CCRF-CEM; assay type: cell-based, Human; settings: CCRF-CEM, read-out: IC50 inhibiting proliferation of tumor cells, CCRF-CEM
How it was run: as §1

Mino = test: CCK-8 tumor cell proliferation, Mino; assay type: cell-based, Human; settings: Homo sapiens; Table 19, IRAK4 inhibitor based; Mino; read-out: IC50 inhibiting proliferation of tumor cells, Mino
How it was run: as §1

MV-4-11 = test: CCK-8 tumor cell proliferation, MV-4-11; assay type: cell-based, Human; settings: Homo sapiens, MV4-11; Table 19, IRAK4 inhibitor based; MV-4-11; read-out: IC50 inhibiting proliferation of tumor cells, MV-4-11
How it was run: as §1

SW620 = test: CCK-8 tumor cell proliferation, SW620; assay type: cell-based, Human; settings: Table 19, IRAK4 inhibitor based, SW620, read-out: IC50 inhibiting proliferation of tumor cells, SW620
How it was run: as §1

SU-DHL-4 = test: CCK-8 tumor cell proliferation, SU-DHL-4; assay type: cell-based, Human; settings: Table 19, IRAK4 inhibitor based, read-out: IC50 inhibiting proliferation of tumor cells, SU-DHL-4
Description: as §2, §3

CAL-62 = test: CCK-8 tumor cell proliferation, CAL-62; assay type: cell-based, Human; settings: Table 19, IRAK4 inhibitor based, CAL-62, read-out: IC50 inhibiting proliferation of tumor cells, CAL-62
How it was run: as §1

Jurkat = test: CCK-8 tumor cell proliferation, Jurkat; assay type: cell-based, Human; settings: Table 19, IRAK4 inhibitor based, read-out: IC50 inhibiting proliferation of tumor cells, Jurkat
How it was run: as §1

[1] = Homo sapiens, Table 20, BCL-2 inhibitor based, LNcap, read-out: IC50 inhibiting proliferation of tumor cells, LNcap
[2] = Homo sapiens, Table 20, BCL-2 inhibitor based
[3] = Homo sapiens, Table 19, IRAK4 inhibitor based, Lncap, read-out: IC50 inhibiting proliferation of tumor cells, Lncap
[4] = Homo sapiens, Table 19, IRAK4 inhibitor based

IC50 (SW620; Homo sapiens, SW-620) | IC50 (SU-DHL-4; Homo sapiens) | IC50 (CAL-62; Homo sapiens) | IC50 (LNcap; [3]) | IC50 (Jurkat; Homo sapiens) | IC50 (CCRF-CEM; [4]) | Compound | further results
 |  |  |  |  |  | CC1(C)CCC(c2ccc(Cl)cc2)=C(CN2CCN(c3ccc(C(=O)NS(=O)(=O)c4ccc(N[C@H](CCN5CCN(Cc6ccc7c(c6F)CN(C6CCC(=O)NC6=O)C7=O)CC5)CSc5ccccc5)c(S(=O)(=O)C(F)(F)F)c4)cc3)CC2)C1 (stereo partly drawn) [GT-03478, 4-(4-((4′-chloro-4,4-dimethyl-3,4,5,6-tetrahydro-[1,1′-biphenyl]-2-yl)methyl)piperazin-1-yl)-N-((4-(((2R)-4-(4-((2-(2,6-dioxopiperidin-3-yl)-4-fluoro-1-oxoisoindolin-5-yl)methyl)piperazin-1-yl)-1-(phenylthio)butan-2-yl)amino)-3-((trifluoromethyl)sulfonyl)phenyl)sulfonyl)benzamide] | IC50 (MM.1R): < 50 nM; IC50 (MDA-MB-231): < 50 nM; IC50 (LNcap; [1]): < 50 nM; IC50 (SR): < 50 nM; IC50 (MM.1S): < 50 nM; IC50 (HCC827): < 50 nM; IC50 (CCRF-CEM; [2]): < 50 nM
 |  |  |  |  |  | CC1(C)CCC(c2ccc(Cl)cc2)=C(CN2CCN(c3ccc(C(=O)NS(=O)(=O)c4ccc(N[C@H](CCN5CCN(Cc6cc(F)c7c(c6)CN(C6CCC(=O)NC6=O)C7=O)CC5)CSc5ccccc5)c(S(=O)(=O)C(F)(F)F)c4)cc3)CC2)C1 (stereo partly drawn) [GT-03479, 4-(4-((4′-chloro-4,4-dimethyl-3,4,5,6-tetrahydro-[1,1′-biphenyl]-2-yl)methyl)piperazin-1-yl)-N-((4-(((2R)-4-(4-((2-(2,6-dioxopiperidin-3-yl)-7-fluoro-1-oxoisoindolin-5-yl)methyl)piperazin-1-yl)-1-(phenylthio)butan-2-yl)amino)-3-((trifluoromethyl)sulfonyl)phenyl)sulfonyl)benzamide] | IC50 (MM.1R): < 50 nM; IC50 (MDA-MB-231): < 50 nM; IC50 (LNcap; [1]): < 50 nM; IC50 (SR): < 50 nM; IC50 (MM.1S): < 50 nM; IC50 (HCC827): 100 to 500 nM; IC50 (CCRF-CEM; [2]): < 50 nM
1000 to 5000 nM | 1000 to 5000 nM |  |  |  |  | O=C1CCC(N2Cc3cc(CN4CCC(n5cc(NC(=O)c6cnn7ccc(N8CCOCC8)nc67)c(C(F)F)n5)CC4)cc(F)c3C2=O)C(=O)N1 (centres unmarked) [GT-03812, N-(3-(difluoromethyl)-1-(1-((2-(2,6-dioxopiperidin-3-yl)-7-fluoro-1-oxoisoindolin-5-yl)methyl)piperidin-4-yl)-1H-pyrazol-4-yl)-5-morpholinopyrazolo[1,5-a]pyrimidine-3-carboxamide] | IC50 (Mino): 100 to 500 nM; IC50 (MV-4-11): 100 to 500 nM
 | 5000 to 10000 nM |  |  |  |  | O=C1CCC(N2C(=O)c3ccc(CN4CCC(n5cc(NC(=O)c6cnn7ccc(N8CCOCC8)nc67)c(C(F)F)n5)CC4)cc3C2=O)C(=O)N1 (centres unmarked) [GT-03815, N-(3-(difluoromethyl)-1-(1-((2-(2,6-dioxopiperidin-3-yl)-1,3-dioxoisoindolin-5-yl)methyl)piperidin-4-yl)-1H-pyrazol-4-yl)-5-morpholinopyrazolo[1,5-a]pyrimidine-3-carboxamide] | IC50 (Mino): 1000 to 5000 nM
 |  |  |  |  |  | CC(C)Nc1cc(-n2ccc3cc(C#N)cnc32)ncc1C(=O)N[C@H]1CC[C@H](C(=O)NCc2ccc3c(c2)CN(C2CCC(=O)NC2=O)C3=O)CC1 (some centres unmarked) [GT-04077, 6-(5-cyano-1H-pyrrolo[2,3-b]pyridin-1-yl)-N-((1r,4r)-4-(((2-(2,6-dioxopiperidin-3-yl)-1-oxoisoindolin-5-yl)methyl)carbamoyl)cyclohexyl)-4-(isopropylamino)nicotinamide] | IC50 (CAL-62): < 50 nM; IC50 (LNcap; Table 19, IRAK4 inhibitor based, Lncap, read-out: IC50 inhibiting proliferation of tumor cells, Lncap): 100 to 500 nM; IC50 (Jurkat): < 50 nM; IC50 (SW620): 100 to 500 nM; IC50 (SU-DHL-4): 500 to 1000 nM; IC50 (CCRF-CEM; Table 19, IRAK4 inhibitor based): < 50 nM
< 50 nM | < 50 nM | < 50 nM | < 50 nM | < 50 nM | < 50 nM | O=C1CCC(N2Cc3c(ccc(CN4CCC(n5cc(NC(=O)c6coc(-c7ccnc(NCC(F)(F)F)c7)n6)c(C(F)F)n5)CC4)c3F)C2=O)C(=O)N1 (centres unmarked) [GT-04098, N-(3-(difluoromethyl)-1-(1-((2-(2,6-dioxopiperidin-3-yl)-4-fluoro-1-oxoisoindolin-5-yl)methyl)piperidin-4-yl)-1H-pyrazol-4-yl)-2-(2-((2,2,2-trifluoroethyl)amino)pyridin-4-yl)oxazole-4-carboxamide] | 
< 50 nM | 100 to 500 nM | < 50 nM | < 50 nM | < 50 nM | < 50 nM | O=C1CCC(N2Cc3cc(CN4CCC(n5cc(NC(=O)c6coc(-c7ccnc(NCC(F)(F)F)c7)n6)c(C(F)F)n5)CC4)cc(F)c3C2=O)C(=O)N1 (centres unmarked) [GT-04099, N-(3-(difluoromethyl)-1-(1-((2-(2,6-dioxopiperidin-3-yl)-7-fluoro-1-oxoisoindolin-5-yl)methyl)piperidin-4-yl)-1H-pyrazol-4-yl)-2-(2-((2,2,2-trifluoroethyl)amino)pyridin-4-yl)oxazole-4-carboxamide] | 
< 50 nM | < 50 nM | < 50 nM | < 50 nM | < 50 nM | < 50 nM | O=C1CCC(N2Cc3cc(CN4CCC(n5cc(NC(=O)c6coc(-c7ccnc(NCC(F)(F)F)c7)n6)c(C(F)F)n5)CC4)ccc3C2=O)C(=O)N1 (centres unmarked) [GT-04120, N-(3-(difluoromethyl)-1-(1-((2-(2,6-dioxopiperidin-3-yl)-1-oxoisoindolin-5-yl)methyl)piperidin-4-yl)-1H-pyrazol-4-yl)-2-(2-((2,2,2-trifluoroethyl)amino)pyridin-4-yl)oxazole-4-carboxamide] | 
< 50 nM | < 50 nM | < 50 nM | < 50 nM | < 50 nM | < 50 nM | O=C1CCC(N2Cc3cc(CN4CCC(n5cc(NC(=O)c6coc(-c7ccnc(NCC8CC8)c7)n6)c(C(F)F)n5)CC4)ccc3C2=O)C(=O)N1 (centres unmarked) [GT-04153, 2-(2-((cyclopropylmethyl)amino)pyridin-4-yl)-N-(3-(difluoromethyl)-1-(1-((2-(2,6-dioxopiperidin-3-yl)-1-oxoisoindolin-5-yl)methyl)piperidin-4-yl)-1H-pyrazol-4-yl)oxazole-4-carboxamide] | 
